Consider eight compounds from patent EP4582413A1, “ARYLTETRAHYDROPYRIDINE COMPOUND AND PEST CONTROL AGENT” (priority 2022, dated 2024).

A value given as a limit tells only on which side of the number the result lay.

Format in all cases: in vivo
Data set [1] has as its system green peach aphids (Myzus persicae). Description: Insecticidal test for green peach aphids. The conditions noted are these: Myzus persicae, foliar, 144 h; 500 ppm chemical solution sprinkled (2.5 mg/cm^2), wingless imagoes on leaf disc, six days, 25°C; read-out: death rate. In a few lines: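 Four wingless Myzus persicae adults on a 3 cm Chinese olive leaf disc over wet cotton, sprayed one day later with a 500 ppm dilution of a 10% emulsion plus spreader (2.5 mg/cm^2, rotary tower). Dishes were capped and held at 25°C. Run in duplicate.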

Data set [2] deals with cat fleas (Ctenocephalides felis). Description: whole plant or invertebrate. Conditions: 72 h, read-out: death rate. In a few lines: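 Glass containers (25 cm² inner surface) were coated with 250 µl of a 1000 ppm acetone solution, and the acetone was evaporated to leave a dry film. Five mixed-sex adult fleas were confined per container at 25°C. Mortality was scored after 3 days.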

Data set [3] concerns kennel ticks (Rhipicephalus sanguineus). Description: Effect test for kennel ticks. The conditions noted are these: 10 µg/cm^2 thin film in glass container, protonymphs, two days, 25°C; for mortality at 10 µg/cm2: Rhipicephalus sanguineus, 48 h, read-out: death rate. On the procedure: In 1 ml of acetone, 1 mg of the presently invented compound was dissolved to prepare a chemical solution having a concentration of 1000 ppm. The bottom surface and side surface of each glass container having an inner wall surface area of 25 cm^2 were coated with 250 µl of the chemical solution, and acetone was then volatilized to form a thin film of the compound on the inner wall of the glass container.
Into each of the treated glass containers, five kennel ticks (Rhipicephalus sanguineus) protonymphs (mixed-sex) were released, and the glass containers were capped and accommodated in a thermostatic room at 25°C.

For data set [4], the system named is diamondback moths (Plutella xylostella). Description: Insecticidal test for diamondback moths. The conditions noted are these: Plutella xylostella, 144 h; 500 ppm chemical solution, leaves soaked, third-instar larvae, six days, 25°C; read-out: death rate. In a few lines:
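Leaves dipped about 10 s in a 500 ppm aqueous dilution of an emulsion formulation with spreader, then air-dried. Five third-instar larvae released per dish and held at 25 °C. Tested in duplicate.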

Data set [5] relates to brown rice planthoppers (Nilaparvata lugens). Description: Insecticidal test for brown rice planthoppers. Conditions: Nilaparvata lugens, 144 h; 500 ppm chemical solution, rice leaf sheaths soaked, third-instar larvae, six days, 25°C; read-out: death rate. An outline of the steps:
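Rice leaf sheaths dipped ~10 s in 500 ppm compound solution (emulsion diluted in water with spreader), air-dried, then infested with five third-instar larvae per tube at 25 °C. Mortality scored after 6 days, death rate calculated, in duplicate.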

In data set [6] the test system is western flower thrips (Frankliniella occidentalis). Description: Insecticidal activity against western flower thrips. Conditions: Frankliniella occidentalis, 48 h; 500 ppm chemical solution sprinkled (2.5 mg/cm^2), larvae on common bean leaf, after 2 days; read-out: death rate. An outline of the steps:
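Bean leaf squares on wet filter paper inoculated with 20 larvae. Compound emulsion diluted with spreader-containing water to 500 ppm and sprayed at 2.5 mg/cm^2 by rotary tower. Run in duplicate.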

Consider `O=C(Nc1ccc(F)cc1)C1=C(O)CC(c2ccc(C(F)(F)F)c(-c3cccc(F)c3)c2)NC1=O` (centres unmarked) [1-006], for which the mortality at 500 µg/mL in data set [1] and in data set [4] was no less than 90% in each case. Moreover, the mortality at 10 µg/cm2 in data set [2] and in data set [3] was no less than 50% each time.

Take `O=C(Nc1ccc(F)cn1)C1=C(O)CC(c2nc(-c3ccc(O)nc3)no2)NC1=O` (centres unmarked) [3-101]: in data set [3], the death rate is no less than 50%.

On to `O=C(Nc1c(F)cccc1F)C1=C(O)CC(c2nc(-c3ccncc3F)no2)NC1=O` (centres unmarked) [3-166], for which the mortality at 500 µg/mL in data set [5], in data set [1] and in data set [4] was no less than 90% each time. In addition, the mortality at 10 µg/cm2 in data set [2] and in data set [3] was no less than 50% each time.

Consider `O=C(Nc1ccc(F)cc1)C1=C(O)CC(c2ccc(C(F)(F)F)c(-c3ccc(F)cc3)c2)NC1=O` (centres unmarked) [1-007], for which the mortality at 500 µg/mL in data set [1], in data set [6] and in data set [4] was no less than 90% each time. Further, the mortality at 10 µg/cm2 in data set [2] and in data set [3] was no less than 50% throughout.

On to `O=C(Nc1ncc(Cl)cn1)C1=C(O)CC(c2cnc(Cl)c(-c3cccnc3)c2)NC1=O` (centres unmarked) [2-100], for which the mortality at 500 µg/mL in data set [5], in data set [1], in data set [6] and in data set [4] was no less than 90% throughout. In addition, the mortality at 10 µg/cm2 in data set [2] is no less than 50%.

In the case of `O=C(Nc1ccccn1)C1=C(O)CC(c2nc(-c3ccc(F)cc3F)no2)NC1=O` (centres unmarked) [3-132], the mortality at 500 µg/mL in data set [5], in data set [1], in data set [6] and in data set [4] was no less than 90% each time. Moreover, in data set [2], the mortality at 10 µg/cm2 was no less than 50%.

Regarding `O=C(Nc1ccccn1)C1=C(O)CC(c2nc(-c3ccccc3F)no2)NC1=O` (centres unmarked) [3-186], the mortality at 500 µg/mL in data set [5], in data set [6] and in data set [4] was no less than 90% throughout. Moreover, the mortality at 10 µg/cm2 in data set [2] and in data set [3] was no less than 50% in each case.

For `O=C(Nc1cnc(Cl)cn1)C1=C(O)CC(c2nc(-c3ccc(F)nc3)no2)NC1=O` (centres unmarked) [3-269], the mortality at 500 µg/mL in data set [5], in data set [1], in data set [6] and in data set [4] was no less than 90% throughout. In addition, the mortality at 10 µg/cm2 in data set [2] was no less than 50%.
